Measured values as given in PubChem BioAssay AID179 (DTP/NCI, 2004).
The source made the active and inactive calls.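 The calls were made as follows: active = compounds giving half or more protection of infected cells from virus-caused growth loss, again on retest; inactive = the rest.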 Where a SMILES comes first, the peptide text is derived from it.

Tested on: CEM cells HIV-1 protection, formazan growth assay
Experiment: NCI AIDS Antiviral Assay
Details: for IC50: measured here: growth of uninfected CEM cells
How it was run: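 Human CEM cells, uninfected and HIV-1-infected, exposed to five drug concentrations; growth measured by soluble formazan assay and scored as percent protection from infection, with protecting compounds retested.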

Structure (SMILES)	EC50 [µM]	IC50 [µM]	outcome
COc1ccccc1-n1c(C)nc2ccccc2c1=O	> 186	> 186	
CCCCCCCCCCCCC(Br)C(=O)OCC1OC(n2cc(C)c(=O)[nH]c2=O)CC1N=[N+]=[N-] (stereo not given)	0.0977	3.39	
CCOc1ccc(Nc2nc(C)c(C(=O)CC(=O)C(=O)Nc3ccc(Cl)c(C(F)(F)F)c3)s2)cc1	> 200	> 200	
O=C(O)C1=C(Cl)c2ccccc2S1(=O)=O			inactive
CC1=C2C(=CC(C)(C)C2O)C(=O)C(C)(O)C12CC2 (stereo not given)			inactive
O=C(O)C/C=C(\C(=O)O)N1C(=O)c2ccccc2C1=O			inactive
O=P(O)(CN1CCN(CP(=O)(O)c2ccccc2)CCN(CP(=O)(O)c2ccccc2)CC1)c1ccccc1	> 200	4.07	
C=CC1CC[N-]CC1.[Cl][Cu][Cl]			inactive
CCOC1=C(c2ccccc2)Oc2cccnc2-n2cccc21	> 200	138	
Cc1ccc(S(=O)(=O)N2CCNCCN(S(=O)(=O)c3ccc(C)cc3)CCN(S(=O)(=O)c3ccc(C)cc3)CC2)cc1	> 200	> 200	
CC(CNN=C(N)N)NN=C(N)N (stereo not given)	> 200	> 200	
CC(=O)OCC1OC(n2c3c(cc(C#N)c2=S)CCC3)C(OC(C)=O)C(OC(C)=O)C1OC(C)=O (stereo not given)	> 200	102	
Cn1nc2c(c(Cl)c1=O)Nc1ccccc1O2	> 200	> 200	
O=[N+]([O-])C(/C=N/Nc1ccccc1)/C=N/Nc1ccccc1	> 24.5	> 24.5	
O=C1C[C@]2(CC(O)CO)CC(O1)[C@@H](I)CC21OCCO1 (stereo not given in full)	> 200	> 200	
CC(CCC(=O)O)CCC(=O)O	> 1450	> 1450	
OC1CSc2ccccc2-n2cccc21 (stereo not given)	> 138	110	
C1CNCCNCCNCCN1			inactive
N#CC1(C#N)OC12CCS(=O)(=O)c1ccccc12 (stereo not given)	> 501	89.1	
OC/C=C/c1ccc(O)c(O)c1			inactive
COC(=O)/C=C/C1C2C3(CCC(C)C12C)OCCS3 (stereo not given)	> 126	> 126	
CNC(=O)c1ccc(C(=O)NCCCCCN(O)C(=O)CCC(=O)NCCCCCN(O)C(=O)CCC(=O)NCCCCCN(O)C(C)=O)c(O)c1O	> 100	69.2	
CC(=O)NC(C(=O)N1CCCC1C(=O)O)C(C)C (stereo not drawn) (Ac-Val-Pro-OH; configuration not given here)	> 200	> 200	

Structure (SMILES)	EC50 [µM]	IC50 [µM]	outcome
Cc1ccc(S(=O)(=O)NN=C2C(C)CC(C(C)(C)C)CC2C)cc1 (stereo not given)	> 200	31.6	
Cc1cccc(C)c1NC(=O)C(=O)CC(=O)c1sc(Nc2c(C)cccc2C)nc1C	> 200	> 200	
N#Cc1c(=O)n(-c2ccccc2)c(O)c2c(N)n[nH]c12	> 200	89.1	
COc1ccc(CC2=NCCc3cc(OC)c(OC)cc32)cc1Br	> 240	3.47	
COc1cc2c(c(OC)c1OC)-c1ccc(OC)c(=O)cc1[C@@H](NC(=O)c1ccccc1)CC2	> 0.2	0.00339	
COc1ccc(C2=NOC3COC4C=CC=CC4OCC23)cc1 (stereo not given)	> 83.2	> 83.2	
CCC1=C(CC2NCCc3ccccc32)CC2c3cc(OC)c(OC)cc3CCN2C1 (stereo not given)			inactive
COc1ccc(N(C)S(=O)(=O)c2ccccc2)cc1	> 200	123	
O=C1NCC2(CCNCC2)N1	> 200	> 200	
CC1CC2=C(S(=O)(=O)c3ccccc3)CC(S(=O)(=O)c3ccccc3)(S(=O)(=O)c3ccccc3)CC21 (stereo not given)	> 50.1	> 50.1	
CC(C)(C)c1ccc2c(c1)OCc1n[nH]c(n1)COc1cc(C(C)(C)C)ccc1OCCOCCO2	> 200	7.24	
Cc1coc(C)c1C(=S)Nc1ccc(Cl)c(C(=O)OC(C)C)c1	0.282	38	
COc1ccc(NC(=S)Nc2ccccn2)cc1	> 200	> 200	
COc1cc(OC)c2c(c1)C(=O)c1ccccc1C2=O			inactive
COc1ccc(C(C)NNC(=O)c2ccncc2)cc1OC (stereo not given)	> 200	30.2	
CCOc1ccccc1N1C(=O)C(=O)C(c2nc3ccccc3s2)C(=O)C1=O	> 18.2	> 18.2	
COc1cc(C2C3=C(COC3=O)OC(C)(C)Oc3cc4c(cc32)OCO4)cc(OC)c1O (stereo not given)	> 2	0.575	
CC(C)NCCCCCNc1cccc2cccnc12	> 200	28.8	
C=C1C(OC(=O)c2ccccc2)C2[C@@H](OC(=O)CC)[C@@H](C)C[C@]2(O)C(=O)[C@@H](C)/C=C/C(C)(C)C(=O)C(O)[C@H]1OC(=O)C(C)C (stereo not given in full)			inactive
CCCC1(N2C(=O)c3ccc4c5c(ccc(c35)C2=O)N(C2(CCC)CCCCC2)C4=O)CCCCC1	> 100	> 100	
OCC1C(O)C(O)[C@@H]2SCCN12 (stereo not given in full)	> 200	> 200	
CCOC(=O)c1ccc(C(=O)/C(C(C)=O)=C2\CCCN2C)n1C	89.1	174	
CC(SCCCCCCCCCCSC(C)C(=O)O)C(=O)O (stereo not given)	> 141	> 141	

Structure (SMILES)	EC50 [µM]	IC50 [µM]	outcome
CC(=O)Oc1c2oc3ccc(Cl)cc3c(=O)c2c(O)c2ccsc12	> 200	> 200	
CC1(C)CCc2c(cc3c(c2O)CCC(C)(C)O3)O1	> 200	> 200	
CC1=NOC(=O)/C1=C/c1ccc([N+](=O)[O-])cc1	> 1070	933	
O=C(CC1C(=O)Nc2ccccc2S1(=O)=O)Nc1cc(Cl)ccc1Cl (stereo not given)	> 18.2	> 18.2	
O=C1NC(Cc2ccc(O)cc2)C(=O)NC1Cc1ccc(O)cc1 (stereo not given)	> 100	> 100	
C=C(CN(C)C)C(=O)c1ccccc1[N+](=O)[O-]	> 200	10.7	
O=[As](O)(O)c1ccc(-c2ccc([As](=O)(O)O)cc2)cc1	> 200	> 200	
C=C1C2CCC3(CCC4C5(C)CCCC4(CN(CC)C5)C3C2)C1O (stereo not given)			inactive
CCCCCCCCCCCC[N+](CCCCCCCCCCCC)=C1SCCS1			inactive
COc1c(OCC(O)CN2CCCCC2)c2c(C)coc2c2ccoc12 (stereo not given)	> 631	35.5	
Cc1cc(NS(=O)(=O)c2ccc(Nc3c4ccccc4nc4c(C(=O)Nc5ccc(S(=O)(=O)O)cc5)cccc34)cc2)no1	123	> 200	
O=C(/C=C/c1ccccc1)CCN1CCCCC1	> 200	10.2	
O=C1OC(C2Cc3ccccc3C2=O)c2ccccc21 (stereo not given)	> 200	186	
NC(=O)CNC(=O)c1ccccc1SC(=O)CCCCC[n+]1ccccc1	1.41	38	
NC1=NNC(=O)C1N=Nc1ccc(S(=O)(=O)Nc2nccs2)cc1 (stereo not given)	> 200	> 200	
CC1N=C(SCc2ccc(Cl)cc2)N2C(C)N=C(SCc3ccc(Cl)cc3)N12 (stereo not given)	> 21.9	> 21.9	
Nc1ccc2ccc(N3CCNCC3)nc2n1	> 200	46.8	
O[C@]12c3ccccc3C1CCCCC2N1CCOCC1 (stereo not given in full)	> 200	> 200	
O=C1/C(=C\c2ccccc2Cl)CCCC/C1=C\c1ccccc1Cl	> 200	166	
COc1cc(C(SCc2ccccc2)SCc2ccccc2)ccc1O	> 200	34.7	
Cc1cc(=O)c2c(o1)-c1ccccc1C(c1ccccc1)c1ccccc1-2 (stereo not given)	1.51	25.1	
COc1cccc(N(CN2C(=O)CCC2C(=O)O)C(C)=O)c1 (stereo not given)			inactive
c1ccc2c(c1)-c1ccccc1C2NC1=NCCO1	> 200	26.3	

Structure (SMILES)	EC50 [µM]	IC50 [µM]	outcome
CCOC(=O)C(=CNC(=S)Nc1c(CC)cccc1C(C)(C)C)C(=O)OCC	> 200	> 200	
CC(=O)[CH-]C(C)=O.[CH2-]C.[CH2-]C.[Tl+3]	> 501	> 501	
CC(=O)O[C@@H]1C2CCC3C(CC[C@@]4(C)C3CC[C@@H]4C(C)N(C)C)[C@@]2(C)C[C@H](O)[C@@H]1NC(=O)c1ccccc1 (stereo not given in full)	> 1.38	> 1.38	
Nc1ccn(C2CC(O)C(COP(=O)(O)OC3C(COP(=O)(O)O)OCC3n3cnc4c(N)ncnc43)O2)c(=O)n1 (stereo not given)	> 200	> 200	
N#CS/C(Cl)=C(/C(Cl)=C(Cl)Cl)[N+](=O)[O-]			inactive
COc1ccc(Br)c(CN2CCc3ccccc32)c1OS(=O)(=O)c1ccc(C)cc1			inactive
CCC(=O)NCC1(c2c[nH]c3ccccc23)SCCS1			inactive
C=CCOc1ccccc1N=N/C(C#N)=N\Nc1ccccc1OCC=C	> 200	110	
CCc1c(Cc2ccccc2)n(COCCO)c(=O)[nH]c1=O	9.55	> 200	
CNC(=O)CNC(=O)C(Cc1ccc(NC(=O)CCCCC(C)=O)cc1)NC(=O)C(CCC(=O)OCc1ccccc1)NC(=O)OC(C)(C)C (stereo not given)	> 200	> 200	
O=P1(c2ccccc2)C(c2ccccc2)=CC=C1c1ccccc1	> 200	7.41	
O=C(CC(=O)c1cccc2ccccc12)C(=O)NC1C2CC3CC(C2)CC1C3 (stereo not given)			inactive
O=C(O)c1ccccc1-c1c2ccc(=O)cc-2oc2cc(O)ccc12	> 316	58.9	
c1ccc(C(NC2=NCCO2)c2ccccc2)cc1			inactive
O=C1NN=C(c2ccccc2)SC1c1ccccc1 (stereo not given)	> 200	> 200	
O=C1C=C2C[C@H]3C(O)C[C@]2(O1)[C@H]1CCCN31 (stereo not given in full)	> 112	> 112	
CNC(=O)OCC1=CC(=O)C=C(OC)C1=O	> 550	11	
CCOP(=O)(C=C=C1CCC2[C@@H]3CCc4cc(OC)ccc4C3CC[C@]12C)OCC (stereo not given in full)	> 200	2.09	
C[C@@H]1C(=O)CC2C(C)(C)CCC[C@]2(C)[C@@]12CC[C@]1(C=COC1)O2 (stereo not given in full)	> 50.1	> 50.1	
Cc1cn([C@H]2CN(O)C[C@@H](CO)O2)c(=O)[nH]c1=O	> 200	> 200	
CC(C)(C)OC(=O)N1CCC2(CC1)C(=O)NCN2c1ccccc1	> 200	> 200	
CC(=O)c1c2c(cc3c1CCC3)CCC2	> 200	> 200	
